Measurements as given in patent US20260285810A1, “CRYSTAL FORM OF MUSCARINE ANTAGONIST, METHOD FOR PREPARING SAME, AND USE THEREOF” (SICHUAN KELUN PHARMACEUTICAL RESEARCH INSTITUTE CO., LTD., priority 2023, published 2026).

Columns and labels:
Type in all cases: physicochemical
[1] = Accelerated and long-term storage, crystal form by XRPD
Description: The packaged samples were stored under conditions of 30° C./35% RH and 40° C./75% RH, and collected and investigated for crystal forms at day 0, 3 months, and 6 months, respectively.

[2] = Hygroscopic weight gain on storage at 80% humidity for 24 hours; details: stored under a humidity condition of 80%+2% for 24 hours
[3] = Influencing factors stability: high temperature, high humidity, illumination, accelerated conditions (XRPD, HPLC purity); details: for remaining at 840 h: solid state
Source text: Samples were collected and tested for XRPD and HPLC purity at day 0, day 5, day 10, and day 35, respectively.

[4] = Temperature- and humidity-mediated crystal transformation (XRPD, HPLC purity, KF water content)
Description: (§1) The XRPD pattern of the crystal form is collected using an X'Pert3 Powder diffractometer, which uses Cu […] irradiation and performs detection using Absolute scan at room temperature. The detection range is from 3.5° to 40°, with a step size of 0.013°, a dwell time of 50 s, and one scan.
Samples 1 and 2 were tested for XRPD, HPLC purity, and KF water content.

[5] = Dynamic vapor sorption (DVS) evaluation; details: DVS 25° C.
Description: The DVS pattern of the crystal form is tested using a DVS Intrinsic (SMS) at a test temperature of 25° C. and detected in cycle-DMDT mode.
Dynamic vapor sorption curve (also referred to as adsorption-desorption characteristic curve) was evaluated using a DVS Intrinsic (SMS). Approximately 30 mg of the sample prepared in Example 1 was subjected to a three-stage programmed scanning method at room temperature (25° C.) as follows: the first-stage hygroscopicity program involving a stepwise increase in relative humidity from 60% RH to 90% RH, with a relative humidity change rate of 10% RH/step; the second-stage hygroscopicity program involving a stepwise decrease in relative humidity from 90% RH to 0% RH, with a relative humidity change rate of 10% RH/step; and the third-stage hygroscopicity program involving a stepwise increase in relative humidity from 0% RH to 90% RH, with a relative humidity change rate of 10% RH/step. The mass change rate mode (dm/dt mode) was used, where when the mass change rate (dm/dt) was ≤0.005%, the instrument program controlled the switching of the relative humidity (RH) to the next stage and maintained constant humidity (+/−10% RH).

[6] = Angle of repose (powder comprehensive characteristic tester); details: Example 1 batch
Description: The powder falls through the funnel to form a cone, and then the angle between the inclined plane and the horizontal plane is determined. The test is repeated in triplicate.

[7] = Bulk density and tap density (powder density tester); details: Example 1 batch
Description: The top surface is carefully leveled, and the apparent volume is recorded. The cylinder is then placed on the powder density tester and shaken at a frequency of 1250. The taped volume is recorded, and then the tap density is calculated. The same batch of samples is tested three times in parallel.

[8] = Drying of wet crystal product with Karl Fischer water content and XRPD testing; details: drying at 30° C.-35° C., vacuum
Description: as §1
The wet crystal product of Example 1 was dried under conditions of a temperature of 30° C.-35° C. and a vacuum degree of −0.08 Mpa. During the drying, the samples were collected for Karl Fischer water content testing and XRPD.

[9] = Particle size distribution (Malvern Mastersizer 3000); details: Example 1 batch; dispersion solvent water
Description: Test method: The particle type is set as non-spherical, the particle refractive index is 1.52, the particle absorption rate is 0.001, and the rotation speed is 1800 rpm; the obscuration is 2%-15%, the sample background test time is 10 seconds, the dispersion solvent is water, the dispersant refractive index is 1.330, and the stabilization time is about 30 seconds; the number of tests is 3.

[10] = Illumination at 25° C. (4500 lx), day 35
[11] = day 0, Example 3 batch, packaged
[12] = before/after drying (30° C., vacuum, humidity ≤20%, 24 h) and re-storage (RH 60%-80%, 25° C.-30° C., 24 h)

For `CN(CCN1CCC(OC(=O)Nc2ccccc2-c2ccccc2)CC1)C(=O)c1ccc(CN2CCC(C(N)=O)CC2)cc1` [crystal form A of revefenacin], the “crystal form and crystallinity” value ([1]; 3-month and 6-month storage under the accelerated condition (40° C./75% RH)) was “remains unchanged in both crystal form and crystallinity”, the crystal form ([1]; 30° C./35% RH, 6 months) was “Crystal form A” and the crystal form ([1]; 30° C./35% RH, day 0) was “Crystal form A”. For the same compound, the crystal form ([1]; 40° C./75% RH, 3 months) was “Crystal form A”, the crystal form ([1]; 40° C./75% RH, 6 months) was “Crystal form A” and the crystal form ([1]; 40° C./75% RH, day 0) was “Crystal form A”. The “crystal form and crystallinity” value ([1]; long-term conditions (30° C./35% RH) for 6 months) was “remains unchanged in both crystal form and crystallinity”, the hygroscopic weight gain [2] was < 2% and the XRPD crystal form ([3]; 40° C., day 5) was “form A”. For the same compound, the XRPD crystal form ([3]; 40° C., day 10) was “form A”, the XRPD crystal form ([3]; 40° C., day 35) was “Crystal form A” and the XRPD crystal form ([3]; 40° C./75% RH, day 5) was “form A”. For the same compound, the XRPD crystal form ([3]; 40° C./75% RH, day 10) was “form A”, the XRPD crystal form ([3]; 40° C./75% RH, day 35) was “Crystal form A” and the XRPD crystal form ([3]; 92.5% RH (25° C.), day 5) was “form A”. For the same compound, the XRPD crystal form ([3]; 92.5% RH (25° C.), day 10) was “form A”, the XRPD crystal form ([3]; 92.5% RH (25° C.), day 35) was “Crystal form A” and the XRPD crystal form ([3]; Illumination at 25° C. (4500 lx), day 5) was “form A”. The XRPD crystal form ([3]; Illumination at 25° C. (4500 lx), day 10) was “form A”, the XRPD crystal form [3, 10] was “Crystal form A” and the “Purity (HPLC)” value [3, 11] was “Purity: 99.87%”. For the same compound, the XRPD crystal form [3, 11] was “form A”, the “crystal form on exposure to stress conditions” value ([3]; high temperature (40° C.), high humidity (92.5% RH), illumination and accelerated (40° C./75% RH) conditions) was “remains unchanged” and the remaining at 840 h ([3]; 40° C., day 35) was 99.9%. For the same compound, the remaining at 840 h ([3]; 40° C./75% RH, day 35) was 99.9%, the remaining at 840 h ([3]; 92.5% RH (25° C.), day 35) was 99.9% and the remaining at 840 h [3, 10] was 99.9%. The HPLC % [4, 12] was 99.79%, the KF/water content [4, 12] was 9.1% and the XRPD [4, 12] was “Crystal form A”. For the same compound, the “chemical purity of the crystal form” value ([4]; during the temperature- and humidity-mediated mutual transformation of crystal forms) was “remains unchanged”, the hygroscopic weight gain ([5]; humidity increased from 60% RH to 90% RH, sample of Example 1) was < 0.4% and the hygroscopic weight gain ([5]; within the range of 30%-90% RH, sample of Example 1) was < 2%. The “crystal form of the samples collected during the DVS process” value ([5]; sample of Example 1) was “remains unchanged”, the DVS curve characteristics ([5]; sample of Example 1, FIG. 5) was “reversible adsorption/desorption characteristics and low hygroscopicity” and the “powder angle of repose” value [6] was 45 °. For the same compound, the bulk density [7] was 0.285 g/mL, the tap density [7] was 0.494 g/mL and the “crystal form (XRPD)” value ([8]; KF water content=7.1%) was “mixed crystals”. For the same compound, the “crystal form (XRPD)” value ([8]; KF water content=8.3%) was “crystal form A”, the “crystal form (XRPD)” value ([8]; KF water content=8.9%) was “crystal form A” and the “crystal form (XRPD)” value ([8]; KF water content=17%) was “crystal form A”. For the same compound, the “particle size D10” value [9] was 8.40 μm, the “particle size D50” value [9] was 25.86 μm and the “particle size D90” value [9] was 53.59 μm.
